MIC, Activity and hemolysis data for one compound are collected here from ChEMBL document CHEMBL5385944, “Hydrazyl hydroxycoumarins as new potential conquerors towards Pseudomonas aeruginosa” (Bioorg Med Chem Lett, 2024).

In brackets after ≈: the same amount, converted by molar mass. Activity calls are given as the source filed them. The rule behind the calls is not given here. Bounds are passed on as bounds.

Data set [1] concerns Staphylococcus aureus. Put plainly: Antibacterial activity against methicillin resistant Staphylococcus aureus 43300 assessed as reduction in bacterial growth by CLSI protocol based method. Format: functional.
The test system of data set [2] is Pseudomonas aeruginosa. Put plainly: Antibacterial activity against Pseudomonas aeruginosa assessed as reduction in bacterial growth by CLSI protocol based method. Type of data set: functional.
Data set [3] deals with Cell membrane. Put plainly: Disruption of inner membrane integrity in Pseudomonas aeruginosa ATCC 27853 assessed as increase in fluorescence intensity at 4 to 8 times MIC. Format: subcellular. Particulars: time <= 12.0 min, TDE = time-dependent effect.
Data set [4] deals with Cell membrane. Briefly: Disruption of cell membrane integrity in Pseudomonas aeruginosa ATCC 27853 assessed as increase in protein leakage by Bradford assay. Type of data set: subcellular.
The subject of data set [5] is NCM460. Put plainly: Cytotoxicity against human NCM460 cells assessed as effect on cell surface damage at 25 ug/ml measured after 24 hrs by microscope based analysis. Format: toxicity. Particulars: ncm460, 24 h, dose 25 µg/ml.
For the next data set, the system named is Enterococcus faecalis. Put plainly: Antibacterial activity against Enterococcus faecalis assessed as reduction in bacterial growth by CLSI protocol based method. Type of data set: functional.
Data set [6] has as its system Staphylococcus aureus. Briefly: Antibacterial activity against Staphylococcus aureus ATCC 25923 assessed as reduction in bacterial growth by CLSI protocol based method. Format: functional.
Data set [7] deals with NCM460. Put plainly: Cytotoxicity against human NCM460 cells assessed as reduction in cell viability at 25 ug/ml measured after 24 hrs by CCK-8 method relative to control. Type of data set: toxicity, cell-based. Particulars: ncm460, 24 h, at 25 µg/mL.
The subject of data set [8] is Staphylococcus aureus. Put plainly: Antibacterial activity against methicillin resistant Staphylococcus aureus assessed as reduction in bacterial growth by CLSI protocol based method. Type of data set: functional.
In data set [9] the test system is Pseudomonas aeruginosa. Put plainly: Antibacterial activity against Pseudomonas aeruginosa ATCC 10104 assessed as reduction in bacterial growth by CLSI protocol based method. Format: functional.
Data set [10] relates to Pseudomonas aeruginosa. Briefly: Induction of drug resistance in Pseudomonas aeruginosa ATCC 27853 measured within 17 passages. Format: functional.
The test system of data set [11] is Cell membrane. Put plainly: Disruption of outer membrane integrity in Pseudomonas aeruginosa ATCC 27853 assessed as increase in fluorescence intensity measured after 8 hrs. Type of data set: subcellular.
For data set [12], the system named is Cell membrane. Briefly: Disruption of inner membrane integrity in Pseudomonas aeruginosa ATCC 27853 assessed as increase in fluorescence intensity measured after 8 hrs. Format: subcellular.
The test system of a further data set is Escherichia coli. Briefly: Antibacterial activity against Escherichia coli ATCC 25922 assessed as reduction in bacterial growth by CLSI protocol based method. Type of data set: functional.
The subject of a further data set is Erythrocyte. Briefly: Hemolytic activity against human RBC assessed as effect on cell morphology at 32 times MIC measured after 8 hrs by fluorescence microscopic analysis. Type of data set: toxicity, cell-based.
The subject of a further data set is Calf thymus DNA. Briefly: Binding affinity to calf thymus DNA at upto 18 micromol/ml by fluorescence spectroscopic method. Type of data set: nucleic-acid assay. Particulars: Bos taurus; dose <= 18.0 µmol/ml.
Data set [13] relates to Pseudomonas aeruginosa. Briefly: Antibacterial activity against Pseudomonas aeruginosa ATCC 27853 assessed as reduction in bacterial growth by CLSI protocol based method. Type of data set: functional.
For another data set, the system named is Klebsiella pneumoniae. Put plainly: Antibacterial activity against Klebsiella pneumoniae assessed as reduction in bacterial growth by CLSI protocol based method. Format: functional.
The test system of data set [14] is Cell membrane. Briefly: Disruption of outer membrane integrity in Pseudomonas aeruginosa ATCC 27853 assessed as increase in fluorescence intensity at 4 to 8 times MIC. Type of data set: subcellular. Particulars: time <= 80.0 min, TDE = time-dependent effect.
The test system of data set [15] is Pseudomonas aeruginosa. Briefly: Antibacterial activity against Pseudomonas aeruginosa ATCC 90027 assessed as reduction in bacterial growth by CLSI protocol based method. Type of data set: functional.
Data set [16] has as its system Staphylococcus aureus. Briefly: Antibacterial activity against Staphylococcus aureus ATCC 29213 assessed as reduction in bacterial growth by CLSI protocol based method. Format: functional.
The test system of another data set is Acinetobacter baumannii. Put plainly: Antibacterial activity against Acinetobacter baumannii assessed as reduction in bacterial growth by CLSI protocol based method. Type of data set: functional.
Data set [17] can be described thus: Hemolytic activity in human RBC assessed as hemolysis at 256 times MIC measured after 8 hrs relative to control. Type of data set: toxicity, cell-based, Erythrocyte. Particulars: red blood cells (erythrocytes), read-out: Activity.
Data set [18] concerns Cell membrane. Put plainly: Disruption of inner membrane integrity in Pseudomonas aeruginosa ATCC 27853 assessed as increase in red fluorescence intensity at 8 times MIC measured after 10 to 40 mins by propidium iodide staining based analysis. Format: subcellular. Particulars: time 10-40 min.

In the case of `O=C(N/N=C/c1c(O)ccc2ccc(=O)oc12)c1ccncc1`, the MIC – broadly, the least concentration at which growth counts as inhibited – was 1 µg/mL (≈ 3.23 µM) with Staphylococcus aureus [1]; 8 µg/mL (≈ 25.9 µM) in the data set with Pseudomonas aeruginosa [2]; 8 µg/mL (≈ 25.9 µM) with Enterococcus faecalis; 16 µg/mL (≈ 51.7 µM) in the data set with Staphylococcus aureus [6]; 4 µg/mL (≈ 12.9 µM) with Staphylococcus aureus [8]; 16 µg/mL (≈ 51.7 µM) with Pseudomonas aeruginosa [9]. For the same compound, the MIC is 8 µg/mL (≈ 25.9 µM) with Escherichia coli; 0.5 µg/mL (≈ 1.62 µM) in the data set with Pseudomonas aeruginosa [13]; 2 µg/mL (≈ 6.47 µM) with Klebsiella pneumoniae; 32 µg/mL (≈ 103 µM) with Pseudomonas aeruginosa [15]; 8 µg/mL (≈ 25.9 µM) in the data set on Staphylococcus aureus [16]; 1 µg/mL (≈ 3.23 µM) in the data set on Acinetobacter baumannii. In addition, the Activity result in the data set on Cell membrane [3] was “Tde”; with Cell membrane [4] it was “Dose-Dependent Effect”; in the data set with NCM460 [5], “Non-Toxic”; in the data set with NCM460 [7], greater than 80%; in the data set with Cell membrane [11], “Dose-Dependent Effect”; in the data set with Cell membrane [12] it was “Dose-Dependent Effect”. The Activity entry in the data set with Erythrocyte is “Non-Toxic”; in the data set on Cell membrane [14], “Tde”. The result with Pseudomonas aeruginosa [10], with Calf thymus DNA and with Cell membrane [18] was Active. Moreover, the hemolysis at 8 h, 256 times MIC in data set [17] was less than 4%.
